Assay results taken from the NIST ThermoML archive (doi:10.1021/acs.jced.8b01135).

Assay: xn = mol fraction of the nth substance listed
Conditions: 102 kPa, Liquid; for speed of sound: Frequency=3 MHz, Single path-length method; for mass density: Vibrating tube method; for viscosity: Concentric cylinders viscometry

CCCCCCCCCCCCC1CCCCC1 [dodecylcyclohexane] + CCCCCCCCCCCC
Conditions | mass density [kg/m3] | speed of sound [m/s] | viscosity [mPa·s]
288.15 K, x1 = 0.1005 | 762.18 | 1333.2 | –
288.15 K, x1 = 0.2001 | 771.24 | 1348 | –
288.15 K, x1 = 0.298 | 779.52 | 1361.9 | –
288.15 K, x1 = 0.4031 | 787.8 | 1375.7 | –
288.15 K, x1 = 0.5001 | 794.95 | 1387.9 | –
288.15 K, x1 = 0.6005 | 801.89 | 1400 | –
288.15 K, x1 = 0.7003 | 808.42 | 1411.3 | –
288.15 K, x1 = 0.7997 | 814.5 | 1421.8 | –
288.15 K, x1 = 0.8994 | 820.23 | 1432.1 | –
288.15 K, x1 = 1 | 825.71 | 1441.5 | –
293.15 K, x1 = 0.1005 | 758.6 | 1313.7 | 1.82
293.15 K, x1 = 0.2001 | 767.69 | 1328.7 | 2.14
293.15 K, x1 = 0.298 | 776 | 1342.6 | 2.53
293.15 K, x1 = 0.4031 | 784.32 | 1356.6 | 3.03
293.15 K, x1 = 0.5001 | 791.49 | 1368.9 | 3.55
293.15 K, x1 = 0.6005 | 798.47 | 1381 | 4.17
293.15 K, x1 = 0.7003 | 805.01 | 1392.4 | 4.9
293.15 K, x1 = 0.7997 | 811.11 | 1403.1 | 5.73
293.15 K, x1 = 0.8994 | 816.87 | 1413.3 | 6.68
293.15 K, x1 = 1 | 822.36 | 1422.9 | 7.76
298.15 K, x1 = 0.1005 | 755.01 | 1294.4 | –
298.15 K, x1 = 0.2001 | 764.14 | 1309.5 | –
298.15 K, x1 = 0.298 | 772.48 | 1323.5 | –
298.15 K, x1 = 0.4031 | 780.84 | 1337.6 | –
298.15 K, x1 = 0.5001 | 788.04 | 1350 | –
298.15 K, x1 = 0.6005 | 795.04 | 1362.1 | –
298.15 K, x1 = 0.7003 | 801.61 | 1374 | –
298.15 K, x1 = 0.7997 | 807.73 | 1384.7 | –
298.15 K, x1 = 0.8994 | 813.51 | 1395.1 | –
298.15 K, x1 = 1 | 819.02 | 1404.8 | –
303.15 K, x1 = 0.1005 | 751.42 | 1275.3 | 1.53
303.15 K, x1 = 0.2001 | 760.58 | 1290.5 | 1.75
303.15 K, x1 = 0.298 | 768.97 | 1304.6 | 2.05
303.15 K, x1 = 0.4031 | 777.36 | 1318.8 | 2.43
303.15 K, x1 = 0.5001 | 784.59 | 1331.3 | 2.82
303.15 K, x1 = 0.6005 | 791.62 | 1343.5 | 3.28
303.15 K, x1 = 0.7003 | 798.2 | 1355.4 | 3.79
303.15 K, x1 = 0.7997 | 804.35 | 1366.3 | 4.38
303.15 K, x1 = 0.8994 | 810.15 | 1376.6 | 5.05
303.15 K, x1 = 1 | 815.68 | 1386.3 | 5.81
313.15 K, x1 = 0.1005 | 744.23 | 1237.7 | 1.29
313.15 K, x1 = 0.2001 | 753.48 | 1253.1 | 1.46
313.15 K, x1 = 0.298 | 761.93 | 1267.5 | 1.7
313.15 K, x1 = 0.4031 | 770.4 | 1281.9 | 1.99
313.15 K, x1 = 0.5001 | 777.69 | 1294.6 | 2.28
313.15 K, x1 = 0.6005 | 784.77 | 1307 | 2.63
313.15 K, x1 = 0.7003 | 791.4 | 1319.2 | 3.01
313.15 K, x1 = 0.7997 | 797.6 | 1330.2 | 3.45
313.15 K, x1 = 0.8994 | 803.45 | 1340.7 | 3.93
313.15 K, x1 = 1 | 809.03 | 1350.5 | 4.48
323.15 K, x1 = 0.1005 | 737.02 | 1200.9 | 1.09
323.15 K, x1 = 0.2001 | 746.35 | 1216.6 | 1.27
323.15 K, x1 = 0.298 | 754.88 | 1231.1 | 1.43
323.15 K, x1 = 0.4031 | 763.43 | 1245.9 | 1.66
323.15 K, x1 = 0.5001 | 770.78 | 1258.7 | 1.89
323.15 K, x1 = 0.6005 | 777.93 | 1271.3 | 2.16
323.15 K, x1 = 0.7003 | 784.61 | 1283.6 | 2.45
323.15 K, x1 = 0.7997 | 790.86 | 1294.8 | 2.78
323.15 K, x1 = 0.8994 | 796.76 | 1305.4 | 3.14
323.15 K, x1 = 1 | 802.38 | 1315.4 | 3.55
333.15 K, x1 = 0.1005 | 729.78 | 1165.1 | 0.945
333.15 K, x1 = 0.2001 | 739.2 | 1181 | 1.09
333.15 K, x1 = 0.298 | 747.81 | 1195.8 | 1.22
333.15 K, x1 = 0.4031 | 756.44 | 1210.7 | 1.4
333.15 K, x1 = 0.5001 | 763.86 | 1223.8 | 1.59
333.15 K, x1 = 0.6005 | 771.08 | 1236.5 | 1.8
333.15 K, x1 = 0.7003 | 777.81 | 1248.9 | 2.03
333.15 K, x1 = 0.7997 | 784.13 | 1260.3 | 2.29
333.15 K, x1 = 0.8994 | 790.08 | 1271 | 2.57
333.15 K, x1 = 1 | 795.75 | 1281.4 | 2.88
